Test results as given in ChEMBL document CHEMBL1933004, “Novel (S)-1,2,3,4-tetrahydroisoquinoline-3-carboxylic acids: peroxisome proliferator-activated receptor γ selective agonists with protein-tyrosine phosphatase 1B inhibition” (Bioorg Med Chem, 2012).

Experiments:
[1] = target: T1, Tyrosine-protein phosphatase non-receptor type 1 (Homo sapiens, UniProt P18031); assay: Inhibition of PTB1B using pNPP as substrate after 30 mins
T1 sequence (P18031 whole entry): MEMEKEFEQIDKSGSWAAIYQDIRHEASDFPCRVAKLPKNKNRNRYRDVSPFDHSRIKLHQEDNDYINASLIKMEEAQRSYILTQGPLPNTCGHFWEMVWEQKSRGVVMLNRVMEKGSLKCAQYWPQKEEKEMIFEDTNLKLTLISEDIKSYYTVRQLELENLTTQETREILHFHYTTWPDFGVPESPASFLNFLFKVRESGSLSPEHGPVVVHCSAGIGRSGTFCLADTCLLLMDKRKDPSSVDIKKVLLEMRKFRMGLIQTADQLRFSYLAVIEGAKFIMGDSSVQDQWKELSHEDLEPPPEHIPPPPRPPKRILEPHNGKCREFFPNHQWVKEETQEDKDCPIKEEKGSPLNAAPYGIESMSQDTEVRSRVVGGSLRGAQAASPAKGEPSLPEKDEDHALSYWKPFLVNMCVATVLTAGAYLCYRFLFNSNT

Mus musculus [2] = assay: Hypoglycemic activity in diabetic KK-Ay mouse model assessed as decrease in glucose level at 10 mg/kg, po qd for 14 days (reference value: 648.4 +/- 77.1 mg/dl); format: functional
Rattus norvegicus [3] = assay: Effect on RBC count in Sprague-Dawley rat at 12.5 mg/kg after 28 days (reference value: 832 +/- 25.2 x 10 ' 4/micro L); format: functional
Mus musculus [4] = assay: Hypoglycemic activity in diabetic KK-Ay mouse model assessed as decrease in glucose level at 30 mg/kg, po qd for 14 days (reference value: 648.4 +/- 77.1 mg/dl); format: functional
[5] = Cmax in Sprague-Dawley rat at 10 mg/kg after 0.5 to 8 hrs by HPLC analysis; format: ADME, organism-based; set-up: dose 10 mg/kg; settings: in vivo
Mus musculus [6] = assay: Hypoglycemic activity in diabetic KK-Ay mouse model assessed as decrease in glucose level at 10 mg/kg, po qd for 4 days relative to untreated control; format: functional; set-up: scale not given: the % may be the effect or the level left
Rattus norvegicus [7] = assay: Effect on hematocrit level in Sprague-Dawley rat at 12.5 mg/kg after 28 days (reference value: 47.5 +/- 0.6 %); format: functional
Mus musculus [8] = assay: Hypotriglyceridemic activity in po dosed diabetic KK-Ay mouse model assessed as decrease in triglyceride level compound administered for 14 days; format: functional; settings: for ED50: 336 h
Rattus norvegicus [9] = assay: Effect on hematocrit level in Sprague-Dawley rat at 50 mg/kg after 28 days (reference value: 47.5 +/- 0.6 %); format: functional
Rattus norvegicus [10] = assay: Effect on RBC count in Sprague-Dawley rat at 50 mg/kg after 28 days (reference value: 832 +/- 25.2 x 10 ' 4/micro L); format: functional
Rattus norvegicus [11] = assay: Effect on hematocrit level in Sprague-Dawley rat at 25 mg/kg after 28 days (reference value: 47.5 +/- 0.6 %); format: functional
[12] = target: T2, Peroxisome proliferator-activated receptor alpha (Homo sapiens) (UniProt Q07869); assay: Transactivation of human full length PPARalpha expressed in COS1 cells co-transfected with RXRalpha after 24 hrs by luciferase reporter gene assay relative to WY14643; format: cell-based; settings: COS-1
T2 sequence (whole entry): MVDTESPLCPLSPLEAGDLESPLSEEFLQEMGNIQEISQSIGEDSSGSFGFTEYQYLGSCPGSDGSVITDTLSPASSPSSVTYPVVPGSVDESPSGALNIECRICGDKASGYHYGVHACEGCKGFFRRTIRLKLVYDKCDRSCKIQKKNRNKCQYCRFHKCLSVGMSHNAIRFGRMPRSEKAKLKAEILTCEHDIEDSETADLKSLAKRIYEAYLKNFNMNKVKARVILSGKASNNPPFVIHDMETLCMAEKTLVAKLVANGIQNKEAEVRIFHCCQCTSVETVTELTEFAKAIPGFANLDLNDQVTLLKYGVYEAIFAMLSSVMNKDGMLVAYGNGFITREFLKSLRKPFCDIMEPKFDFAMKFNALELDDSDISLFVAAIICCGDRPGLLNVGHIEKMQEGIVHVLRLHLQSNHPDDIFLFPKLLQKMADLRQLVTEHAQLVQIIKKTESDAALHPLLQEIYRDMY

Rattus norvegicus [13] = assay: Effect on RBC count in Sprague-Dawley rat at 25 mg/kg after 28 days (reference value: 832 +/- 25.2 x 10 ' 4/micro L); format: functional
Mus musculus [14] = assay: Hypoglycemic activity in po dosed diabetic KK-Ay mouse model assessed as decrease in glucose level compound administered for 14 days; format: functional; settings: for ED50: 336 h
Rattus norvegicus [15] = assay: Effect on RBC count in Sprague-Dawley rat at 100 mg/kg after 28 days (reference value: 832 +/- 25.2 x 10 ' 4/micro L); format: functional
Mus musculus [16] = assay: Hypotriglyceridemic activity in diabetic KK-Ay mouse model assessed as decrease in triglyceride level at 10 mg/kg, po qd for 14 days (reference value: 819.9 +/- 135.5 mg/dl); format: functional
Mus musculus [17] = assay: Hypotriglyceridemic activity in diabetic KK-Ay mouse model assessed as decrease in triglyceride level at 30 mg/kg, po qd for 14 days (reference value: 819.9 +/- 135.5 mg/dl); format: functional
Mus musculus [18] = assay: Hypoglycemic activity in diabetic KK-Ay mouse model assessed as decrease in glucose level at 3 mg/kg, po qd for 14 days (reference value: 648.4 +/- 77.1 mg/dl); format: functional
Rattus norvegicus [19] = assay: Effect on hematocrit level in Sprague-Dawley rat at 100 mg/kg after 28 days (reference value: 47.5 +/- 0.6 %); format: functional
Mus musculus [20] = assay: Hypotriglyceridemic activity in diabetic KK-Ay mouse model assessed as decrease in triglyceride level at 3 mg/kg, po qd for 14 days (reference value: 819.9 +/- 135.5 mg/dl); format: functional
Rattus norvegicus [21] = assay: Effect on RBC count in Sprague-Dawley rat at 12.5 mg/kg after 28 days (reference value: 862 +/- 21.5 x 10 ' 4/micro L); format: functional
Rattus norvegicus [22] = assay: Effect on RBC count in Sprague-Dawley rat at 100 mg/kg after 28 days (reference value: 862 +/- 21.5 x 10 ' 4/micro L); format: functional
Mus musculus [23] = assay: Ratio of rosiglitazone ED50 to compound ED50 for po dosed diabetic KK-Ay mouse model; format: functional
[24] = target: T3, Peroxisome proliferator-activated receptor gamma (Homo sapiens) (UniProt P37231); assay: Ratio of rosiglitazone EC50 to compound EC50 for human full length PPARgamma
T3 sequence (whole entry): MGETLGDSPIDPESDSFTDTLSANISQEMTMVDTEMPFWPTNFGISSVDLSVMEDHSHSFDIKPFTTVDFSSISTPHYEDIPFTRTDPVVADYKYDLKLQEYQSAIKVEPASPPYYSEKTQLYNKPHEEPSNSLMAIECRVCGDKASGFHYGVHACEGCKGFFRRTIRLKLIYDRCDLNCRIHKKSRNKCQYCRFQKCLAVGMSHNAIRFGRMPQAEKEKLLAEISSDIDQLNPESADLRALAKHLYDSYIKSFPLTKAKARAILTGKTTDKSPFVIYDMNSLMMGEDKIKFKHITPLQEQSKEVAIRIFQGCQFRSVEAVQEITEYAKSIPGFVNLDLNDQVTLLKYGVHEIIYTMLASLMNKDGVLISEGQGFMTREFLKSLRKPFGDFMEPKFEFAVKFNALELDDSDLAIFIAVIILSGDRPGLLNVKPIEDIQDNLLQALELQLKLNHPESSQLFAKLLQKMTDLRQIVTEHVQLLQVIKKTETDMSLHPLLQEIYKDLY

Rattus norvegicus [25] = assay: Effect on hematocrit level in Sprague-Dawley rat at 100 mg/kg after 28 days (reference value: 49.4 +/- 0.4 %); format: functional
Rattus norvegicus [26] = assay: Effect on hematocrit level in Sprague-Dawley rat at 12.5 mg/kg after 28 days (reference value: 49.4 +/- 0.4 %); format: functional
Rattus norvegicus [27] = assay: Effect on RBC count in Sprague-Dawley rat at 25 mg/kg after 28 days (reference value: 862 +/- 21.5 x 10 ' 4/micro L); format: functional
Rattus norvegicus [28] = assay: Effect on RBC count in Sprague-Dawley rat at 50 mg/kg after 28 days (reference value: 862 +/- 21.5 x 10 ' 4/micro L); format: functional
[29] = target: T4, Peroxisome proliferator-activated receptor gamma (Homo sapiens, UniProt P37231); assay: Transactivation of human full length PPARgamma expressed in COS1 cells co-transfected with RXRalpha after 24 hrs by luciferase reporter gene assay; format: cell-based, COS-1
T4 sequence (P37231 whole entry): T3 sequence (whole entry)

Rattus norvegicus [30] = assay: Effect on hematocrit level in Sprague-Dawley rat at 25 mg/kg after 28 days (reference value: 49.4 +/- 0.4 %); format: functional
Rattus norvegicus [31] = assay: Effect on hematocrit level in Sprague-Dawley rat at 50 mg/kg after 28 days (reference value: 49.4 +/- 0.4 %); format: functional
[32] = target: T3, Peroxisome proliferator-activated receptor gamma (Homo sapiens); assay: Transactivation of human full length PPARgamma expressed in COS1 cells co-transfected with RXRalpha after 24 hrs by luciferase reporter gene assay relative to farglitazar; format: cell-based; settings: COS-1

Structure (SMILES): CN(CCOc1ccc(CC2SC(=O)NC2=O)cc1)c1ccccn1 (stereo not drawn) [ROSIGLITAZONE]
- IC50 [1]: > 30 µM
- Activity (Mus musculus [2]): 392.9 mg/dL
- Activity (Rattus norvegicus [3]): 791 ×10⁴ /uL
- Activity (Mus musculus [4]): 320.6 mg/dL
- Cmax [5]: 34.7 µM
- Activity (Mus musculus [6]): 48%
- Activity (Rattus norvegicus [7]): 46.3%
- Activity (Mus musculus [8]): Dose-dependent effect
- ED50 (Mus musculus [8]): > 30 mg/kg
- Activity (Rattus norvegicus [9]): 43.1%
- Activity (Rattus norvegicus [10]): 724 ×10⁴ /uL
- Activity (Rattus norvegicus [11]): 43.9%
- Emax [12]: 105%
- Activity (Rattus norvegicus [13]): 727 ×10⁴ /uL
- Activity (Mus musculus [14]): Dose-dependent effect
- ED50 (Mus musculus [14]): 23 mg/kg
- Activity (Rattus norvegicus [15]): 679 ×10⁴ /uL
- Activity (Mus musculus [16]): 672.3 mg/dL
- Activity (Mus musculus [17]): 504.9 mg/dL
- Activity (Mus musculus [18]): 413.5 mg/dL
- Activity (Rattus norvegicus [19]): 42.3%
- Activity (Mus musculus [20]): 593.3 mg/dL

Structure (SMILES): C/C=C/C=C/C(=O)N1Cc2cc(OCCc3nc(/C=C/CCC(C)C)oc3C)ccc2C[C@H]1C(=O)O.CC(C)(C)N
- Activity (Rattus norvegicus [21]): 868 ×10⁴ /uL
- Activity (Rattus norvegicus [22]): 817 ×10⁴ /uL
- IC50 [1]: 1.18 µM
- Ratio ED50 (Mus musculus [23]): 5
- Activity (Mus musculus [2]): 273.7 mg/dL
- Ratio EC50 [24]: 4
- Activity (Rattus norvegicus [25]): 47.8%
- Activity (Mus musculus [4]): 252.5 mg/dL
- Cmax [5]: 4.5 µM
- Activity (Rattus norvegicus [26]): 49.7%
- Activity (Mus musculus [6]): 55%
- Activity (Rattus norvegicus [27]): 807 ×10⁴ /uL
- Activity (Mus musculus [8]): Dose-dependent effect
- ED50 (Mus musculus [8]): 6.2 mg/kg
- Activity (Rattus norvegicus [28]): 835 ×10⁴ /uL
- EC50 [29]: 0.03 µM
- Emax [12]: < 50%
- Activity (Mus musculus [14]): Dose-dependent effect
- ED50 (Mus musculus [14]): 4.3 mg/kg
- Activity (Mus musculus [16]): 243.8 mg/dL
- Activity (Rattus norvegicus [30]): 47.1%
- Activity (Mus musculus [17]): 318.4 mg/dL
- Activity (Mus musculus [18]): 385.2 mg/dL
- Activity (Rattus norvegicus [31]): 48.2%
- Activity (Mus musculus [20]): 625.6 mg/dL
- Emax [32]: 98%
